Measured values from patent US20210198277A1, “AMINE-SUBSTITUTED ARYL OR HETEROARYL COMPOUNDS” (Epizyme, Inc., priority 2016, published 2021).
Where two headings read alike, the source gives them in different places.

Key:
EHMT1 = molecular target: T1, EHMT1 (Homo sapiens, UniProt Q9H9B1); test: EHMT1 enzyme assay on peptide substrate (EHMT1 PEP); assay type: biochemical; conditions: Table II
T1 sequence (Q9H9B1 1-1298): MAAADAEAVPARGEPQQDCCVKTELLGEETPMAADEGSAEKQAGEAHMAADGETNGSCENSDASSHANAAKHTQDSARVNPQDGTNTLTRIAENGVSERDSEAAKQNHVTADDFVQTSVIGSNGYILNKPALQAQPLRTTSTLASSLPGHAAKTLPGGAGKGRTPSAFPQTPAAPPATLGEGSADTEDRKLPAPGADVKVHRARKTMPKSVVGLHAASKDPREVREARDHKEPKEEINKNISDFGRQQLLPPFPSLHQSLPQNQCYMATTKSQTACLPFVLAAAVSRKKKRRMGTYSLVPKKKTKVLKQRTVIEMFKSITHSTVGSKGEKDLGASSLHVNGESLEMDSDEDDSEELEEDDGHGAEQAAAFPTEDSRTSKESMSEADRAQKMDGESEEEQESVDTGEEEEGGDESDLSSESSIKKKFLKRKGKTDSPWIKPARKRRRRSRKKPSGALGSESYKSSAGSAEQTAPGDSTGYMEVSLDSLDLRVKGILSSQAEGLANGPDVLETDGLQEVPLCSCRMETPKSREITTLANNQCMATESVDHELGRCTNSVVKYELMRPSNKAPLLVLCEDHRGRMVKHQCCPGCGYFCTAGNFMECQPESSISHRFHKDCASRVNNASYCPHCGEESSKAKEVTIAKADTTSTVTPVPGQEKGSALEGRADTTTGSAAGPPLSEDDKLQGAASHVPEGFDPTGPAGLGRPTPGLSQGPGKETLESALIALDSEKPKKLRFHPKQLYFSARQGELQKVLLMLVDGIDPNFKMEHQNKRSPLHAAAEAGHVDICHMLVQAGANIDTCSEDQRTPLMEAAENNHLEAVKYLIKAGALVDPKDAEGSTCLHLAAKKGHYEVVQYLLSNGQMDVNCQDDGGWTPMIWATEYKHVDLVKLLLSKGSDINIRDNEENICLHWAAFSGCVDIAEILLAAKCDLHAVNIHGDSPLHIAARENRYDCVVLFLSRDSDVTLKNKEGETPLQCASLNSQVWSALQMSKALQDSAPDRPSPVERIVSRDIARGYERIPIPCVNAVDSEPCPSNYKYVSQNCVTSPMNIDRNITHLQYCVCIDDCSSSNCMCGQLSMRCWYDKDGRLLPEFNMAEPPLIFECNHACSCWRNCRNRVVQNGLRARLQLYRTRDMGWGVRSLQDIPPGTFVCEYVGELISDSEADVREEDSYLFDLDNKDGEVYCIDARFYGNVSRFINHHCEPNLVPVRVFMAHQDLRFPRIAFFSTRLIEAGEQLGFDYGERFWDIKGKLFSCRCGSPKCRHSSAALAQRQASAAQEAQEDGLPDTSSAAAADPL

human EHMT2 913-1193 = molecular target: T2, human EHMT2 913-1193 (Homo sapiens, UniProt Q96KQ7); test: EHMT2 enzyme assay on histone peptide substrate (EHMT2 PEP); assay type: biochemical; conditions: Table II; read-out: EHMT2 PEP (IC50 μM)
T2 construct: recombinant purified human EHMT2 913-1193, Viva; purchased Viva
T2 sequence (Q96KQ7 913-1193): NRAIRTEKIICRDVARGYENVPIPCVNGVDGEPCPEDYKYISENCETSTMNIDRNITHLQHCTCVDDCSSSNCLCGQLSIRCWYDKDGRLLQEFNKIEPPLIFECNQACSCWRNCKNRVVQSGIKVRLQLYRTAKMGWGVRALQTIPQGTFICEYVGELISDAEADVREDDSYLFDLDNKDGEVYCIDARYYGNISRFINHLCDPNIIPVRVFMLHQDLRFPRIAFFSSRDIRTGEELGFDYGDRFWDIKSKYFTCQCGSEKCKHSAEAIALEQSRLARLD
Outline: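 Inhibition is measured as reduced tritium incorporation into a biotinylated histone peptide from ^3H-SAM. The enzyme (0.031 nM) sees compound for 30 minutes before a 60-minute room-temperature reaction, which unlabeled SAM quenches prior to streptavidin Flashplate capture.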

COc1ccc(Nc2nccc(NCC3CCNCC3)n2)cc1OCCCN1CCOCC1 [Compound 16, N^2-(4-methoxy-3-(3-morpholinopropoxy)phenyl)-N^4-(piperidin-4-ylmethyl)pyrimidine-2,4-diamine]
IC50 (EHMT1; read-out: EHMT1 PEP (IC50 μM)): 0.1 to 1 µM
IC50 (human EHMT2 913-1193): 0.1 to 1 µM

COc1ccc(Nc2nccc(NCC3CCNCC3)n2)cc1CCNCC1CCCC1 [Compound 17, N^2-(3-(2-((cyclopentylmethyl)amino)ethyl)-4-methoxyphenyl)-N^4-(piperidin-4-ylmethyl)pyrimidine-2,4-diamine]
IC50 (EHMT1; read-out: EHMT1 PEP (IC50 μM)): 0.1 to 1 µM
IC50 (human EHMT2 913-1193): 0.1 to 1 µM

COc1ccc(Nc2nccc(NCC3CCN(C(C)=O)CC3)n2)cc1OCC1CCN(C)C1 (centres unmarked) [Compound 18, 1-(4-(((2-((4-methoxy-3-((1-methylpyrrolidin-3-yl)methoxy)phenyl)amino)pyrimidin-4-yl)amino)methyl)piperidin-1-yl)ethan-1-one]
IC50 (EHMT1; read-out: EHMT1 PEP (IC50 μM)): 0.1 to 1 µM
IC50 (human EHMT2 913-1193): 0.1 to 1 µM

COc1ccc(Nc2nc(C)cc(NCC3CCN(C(C)=O)CC3)n2)cc1OCCCN1CCCC1 [Compound 19, 1-(4-(((2-((4-methoxy-3-(3-(pyrrolidin-1-yl)propoxy)phenyl)amino)-6-methylpyrimidin-4-yl)amino)methyl)piperidin-1-yl)ethan-1-one]
IC50 (EHMT1; read-out: EHMT1 PEP (IC50 μM)): < 0.1 µM
IC50 (human EHMT2 913-1193): < 0.1 µM

COc1ccc(Nc2nccc(NC(C)C)n2)cc1OCCCN1CCCC1 [Compound 20]
IC50 (EHMT1; read-out: EHMT1 PEP (IC50 μM)): 0.1 to 1 µM
IC50 (human EHMT2 913-1193): < 0.1 µM

COc1ccc(Nc2nccc(NCc3ccccc3)n2)cc1OCCCN1CCCC1 [Compound 21]
IC50 (EHMT1; read-out: EHMT1 PEP (IC50 μM)): 0.1 to 1 µM
IC50 (human EHMT2 913-1193): < 0.1 µM

COCCCNc1ccnc(Nc2ccc(OC)c(OCCCN3CCCC3)c2)n1 [Compound 22]
IC50 (EHMT1; read-out: EHMT1 PEP (IC50 μM)): < 0.1 µM
IC50 (human EHMT2 913-1193): < 0.1 µM

COc1ccc(Nc2nccc(NCc3ccccn3)n2)cc1OCCCN1CCCC1 [Compound 23]
IC50 (EHMT1; read-out: EHMT1 PEP (IC50 μM)): 0.1 to 1 µM
IC50 (human EHMT2 913-1193): 0.1 to 1 µM

COc1ccc(Nc2nccc(NCc3ccncc3)n2)cc1OCCCN1CCCC1 [Compound 24]
IC50 (EHMT1; read-out: EHMT1 PEP (IC50 μM)): < 0.1 µM
IC50 (human EHMT2 913-1193): < 0.1 µM

COc1ccc(Nc2nccc(NCc3cccnc3)n2)cc1OCCCN1CCCC1 [Compound 25]
IC50 (EHMT1; read-out: EHMT1 PEP (IC50 μM)): < 0.1 µM
IC50 (human EHMT2 913-1193): < 0.1 µM

COc1cccc(CNc2ccnc(Nc3ccc(OC)c(OCCCN4CCCC4)c3)n2)c1 [Compound 26]
IC50 (EHMT1; read-out: EHMT1 PEP (IC50 μM)): 0.1 to 1 µM
IC50 (human EHMT2 913-1193): < 0.1 µM

COCCNc1ccnc(Nc2ccc(OC)c(OCCCN3CCCC3)c2)n1 [Compound 27]
IC50 (EHMT1; read-out: EHMT1 PEP (IC50 μM)): 0.1 to 1 µM
IC50 (human EHMT2 913-1193): 0.1 to 1 µM

COc1ccc(CNc2ccnc(Nc3ccc(OC)c(OCCCN4CCCC4)c3)n2)cc1 [Compound 28]
IC50 (EHMT1; read-out: EHMT1 PEP (IC50 μM)): < 0.1 µM
IC50 (human EHMT2 913-1193): < 0.1 µM

COc1ccc(Nc2nccc(NCC3CCN(C(C)C)CC3)n2)cc1OCCCN1CCCC1 [Compound 29]
IC50 (EHMT1; read-out: EHMT1 PEP (IC50 μM)): < 0.1 µM
IC50 (human EHMT2 913-1193): < 0.1 µM

COc1ccc(Nc2nccc(NCc3cnn(C)c3)n2)cc1OCCCN1CCCC1 [Compound 30]
IC50 (EHMT1; read-out: EHMT1 PEP (IC50 μM)): 0.1 to 1 µM
IC50 (human EHMT2 913-1193): < 0.1 µM

COc1ccc(Nc2nccc(NCc3nc4ccccc4[nH]3)n2)cc1OCCCN1CCCC1 [Compound 31]
IC50 (EHMT1; read-out: EHMT1 PEP (IC50 μM)): 0.1 to 1 µM
IC50 (human EHMT2 913-1193): 0.1 to 1 µM

COc1ccc(Nc2nccc(NCC3CCN(C)CC3)n2)cc1OCCCN1CCCC1 [Compound 32]
IC50 (EHMT1; read-out: EHMT1 PEP (IC50 μM)): < 0.1 µM
IC50 (human EHMT2 913-1193): < 0.1 µM

COc1ccc(Nc2nccc(NCC3CCN(c4ccccc4)CC3)n2)cc1OCCCN1CCCC1 [Compound 33]
IC50 (EHMT1; read-out: EHMT1 PEP (IC50 μM)): 0.1 to 1 µM
IC50 (human EHMT2 913-1193): < 0.1 µM

COc1ccc(Nc2nccc(NCC3CCCC3)n2)cc1OCCCN1CCCC1 [Compound 34]
IC50 (EHMT1; read-out: EHMT1 PEP (IC50 μM)): 0.1 to 1 µM
IC50 (human EHMT2 913-1193): < 0.1 µM

COc1ccc(Nc2cccc(NC3CCC3)n2)cc1OCCCN1CCCC1 [Compound 35]
IC50 (EHMT1; read-out: EHMT1 PEP (IC50 μM)): 0.1 to 1 µM
IC50 (human EHMT2 913-1193): 0.1 to 1 µM

COc1ccccc1CNc1ccnc(Nc2ccc(OC)c(OCCCN3CCCC3)c2)n1 [Compound 36]
IC50 (EHMT1; read-out: EHMT1 PEP (IC50 μM)): 0.1 to 1 µM
IC50 (human EHMT2 913-1193): < 0.1 µM

COc1ccc(Nc2nccc(NCCc3cccnc3)n2)cc1OCCCN1CCCC1 [Compound 37]
IC50 (EHMT1; read-out: EHMT1 PEP (IC50 μM)): 0.1 to 1 µM
IC50 (human EHMT2 913-1193): 0.1 to 1 µM

COc1ccc(Nc2nccc(NCCNC(C)=O)n2)cc1OCCCN1CCCC1 [Compound 38]
IC50 (EHMT1; read-out: EHMT1 PEP (IC50 μM)): 0.1 to 1 µM
IC50 (human EHMT2 913-1193): < 0.1 µM

COc1ccc(Nc2nccc(NCCc3ccncc3)n2)cc1OCCCN1CCCC1 [Compound 39]
IC50 (EHMT1; read-out: EHMT1 PEP (IC50 μM)): < 0.1 µM
IC50 (human EHMT2 913-1193): < 0.1 µM

COc1ccc(Nc2nccc(NCCOc3ccccc3)n2)cc1OCCCN1CCCC1 [Compound 40]
IC50 (EHMT1; read-out: EHMT1 PEP (IC50 μM)): 0.1 to 1 µM
IC50 (human EHMT2 913-1193): 0.1 to 1 µM

CNC(=O)CNc1ccnc(Nc2ccc(OC)c(OCCCN3CCCC3)c2)n1 [Compound 41]
IC50 (EHMT1; read-out: EHMT1 PEP (IC50 μM)): 0.1 to 1 µM
IC50 (human EHMT2 913-1193): 0.1 to 1 µM

COc1ccc(Nc2nccc(NCC(C)(C)O)n2)cc1OCCCN1CCCC1 [Compound 42]
IC50 (EHMT1; read-out: EHMT1 PEP (IC50 μM)): 0.1 to 1 µM
IC50 (human EHMT2 913-1193): 0.1 to 1 µM

COc1ccc(Nc2nccc(NCCS(=O)(=O)N(C)C)n2)cc1OCCCN1CCCC1 [Compound 43]
IC50 (EHMT1; read-out: EHMT1 PEP (IC50 μM)): 0.1 to 1 µM
IC50 (human EHMT2 913-1193): 0.1 to 1 µM

COc1ccc(Nc2nccc(NCCCN(C)C(C)=O)n2)cc1OCCCN1CCCC1 [Compound 44]
IC50 (EHMT1; read-out: EHMT1 PEP (IC50 μM)): 0.1 to 1 µM
IC50 (human EHMT2 913-1193): 0.1 to 1 µM

COc1ccc(Nc2nccc(NCC3(O)CCCCC3)n2)cc1OCCCN1CCCC1 [Compound 45]
IC50 (EHMT1; read-out: EHMT1 PEP (IC50 μM)): 0.1 to 1 µM
IC50 (human EHMT2 913-1193): 0.1 to 1 µM

COc1ccc(Nc2nccc(NCc3cc[nH]n3)n2)cc1OCCCN1CCCC1 [Compound 46]
IC50 (EHMT1; read-out: EHMT1 PEP (IC50 μM)): 0.1 to 1 µM
IC50 (human EHMT2 913-1193): < 0.1 µM

COc1ccc(Nc2nccc(NCC3CCN(C(C)=O)CC3)n2)cc1OCCCN1CCCC1 [Compound 47, 1-(4-(((2-((4-methoxy-3-(3-(pyrrolidin-1-yl)propoxy)phenyl)amino)pyrimidin-4-yl)amino)methyl)piperidin-1-yl)ethan-1-one]
IC50 (EHMT1; read-out: EHMT1 PEP (IC50 μM)): < 0.1 µM
IC50 (human EHMT2 913-1193): < 0.1 µM

COc1ccc(Nc2nccc(NCC3CCN(C(C)=O)CC3)n2)cc1COCCN1CCCC1 [Compound 48]
IC50 (EHMT1; read-out: EHMT1 PEP (IC50 μM)): 0.1 to 1 µM
IC50 (human EHMT2 913-1193): 0.1 to 1 µM

COc1ccc(Nc2nccc(NCC3(O)CCOCC3)n2)cc1OCCCN1CCCC1 [Compound 49]
IC50 (EHMT1; read-out: EHMT1 PEP (IC50 μM)): 0.1 to 1 µM
IC50 (human EHMT2 913-1193): 0.1 to 1 µM

COc1ccc(Nc2nccc(NC3CCCCC3)n2)cc1OCCCN1CCCC1 [Compound 50]
IC50 (EHMT1; read-out: EHMT1 PEP (IC50 μM)): 0.1 to 1 µM
IC50 (human EHMT2 913-1193): 0.1 to 1 µM

CNc1cc(C)nc(Nc2ccc(OC)c(OCCCN3CCCC3)c2)n1 [Compound 205, N^2-(4-methoxy-3-(3-(pyrrolidin-1-yl)propoxy)phenyl)-N^4,6-dimethylpyrimidine-2,4-diamine]
IC50 (EHMT1; EHMT1 PEP (IC50 μM)): < 0.1 µM
IC50 (human EHMT2 913-1193): < 0.1 µM

CNc1cc(Nc2ccc(OC)c(OCCCN3CCCC3)c2)ccn1 [Compound 206]
IC50 (EHMT1; read-out: EHMT1 PEP (IC50 μM)): 0.1 to 1 µM
IC50 (human EHMT2 913-1193): 0.1 to 1 µM
